Measurements: patent publication EP0727211A1, “Use of src SH2 specific compounds to treat a bone resorption disease” (SMITHKLINE BEECHAM CORPORATION, priority 1995, dated 1996)

Target: T1, human p85 SH2 domain (Homo sapiens, UniProt P27986)
T1 construct: SH2 domain of human p85 (amino acids 321-440); made in house; host or cells: E. coli (pGEX-3X)
Assay: SH2 domain / pY peptide binding assay (ELISA-based, 96 well plate), p85 SH2
Settings: for Ki: Ki calculated from IC50 by the expanded equation, Table II; for IC50: cloned human SH2 domain fusion protein, 0.1 uM biotinylated pY peptide, Table I
Method: The inhibitory activity of compounds at the different human SH2 domains was determined in vitro using SH2 domains expressed as fusion proteins in E. coli. The SH2 domains used herein were the human forms of the src SH2 domain, Grb2 SH2 domain, lck SH2 domain, fyn SH2 domain, SH-PTP2 SH2 domain, p85 SH2 domain and hcp SH2 domain.
Fusion proteins having the structure GST-X-SH2 were prepared as described in the GST gene fusion kit system available from Pharmacia (New Jersey). GST is the tagging sequence glutathione s-transferase epitope (SEQ ID NO: 8) for fyn, Grb2 and SH-PTP2 and is the tagging sequence glutathione s-transferase epitope (SEQ ID NO: 9) for p85. SH2 refers to the SH2 domains of fyn, Grb2, p85 and SH-PTP2 which were expressed and purified using glutathione Sepharose 4B (Pharmacia) according to "Current Protocols in Molecular Biology", ed. FM Ausubel et al., pub. John Wiley and Sons, Inc., (1995), p 16.7.1. X is an appropriate linker, preferably of 6 to 21 base pairs, used to keep the SH2 construct in frame and complement cloning. As such, the sequence of X is not critical. One skilled in the art can readily construct the appropriate linker. The DNA sequence encoding each GST-X-SH2 fusion protein was designed such that the indicated restriction sites (BamH1 and EcoRI) flank the SH2 region. The vector used in the instant experiments was the E. coli expression vector pGEX-2T (Pharmacia) for fyn, Grb2 and SH-PTP2, and pGEX-3X (Pharmacia) for p85. Each of these vectors result in SH2 constructs having additional C-terminal amino acids as described below.
Human p85 SH2 domain: The sequence encoding the SH2 domain of human p85 (amino acids 321-440) (Skolnik, E. et al., Cell 65, 83-90 (1991)) was cloned into the BamHI and EcoRI sites of the expression vector pGEX-3X. The SH2 domain including the additional C-terminal amino acids asparagine-serine-serine (SEQ ID NO: 11)was cloned by PCR techniques known to those skilled in the art to yield the expressed fusion protein GST-X-p85.
The binding assays for the SH2 domains and pY peptides were performed in an ELISA-based 96 well plate assay. In Millipore 96 well filter plates, hydrophilic Durapore® (pore size 0.65um Cat. No. MADVN6550), was added 2 ul (50% suspension) of Protein-G Sepharose (available from Pharmacia of N.J. Cat. No. 17-0618-01) and either 2 ul of 2 mg/ml of MAB178. (for gp120/SH2 domain fusion proteins src, lck and hcp) or 0.25 ul of anti-GST polyclonal antisera (available from Pharmacia of N.J.) (for GST/SH2 domain fusion proteins fyn, Grb2, p85 and SH-PTP2). 10 pmol of the subject SH2 domain fusion protein were added to their respective wells. The volume was brought to 100 ul with TBS-T (tris buffered saline plus 0.05% tween-20), incubated and shaken at room trmperature for 1 hr. then washed 1x with TBS-T (4°C). 90 ul of TBS-T were then added to each well. Specific pY biotinylated peptides were diluted to a concentration of 1.0 uM in TBS-T (these peptides can be obtained from Bachem Bioscience of Pennsylvania, Genosys Biotechnologies of Texas and California Peptide Research of California). 10 ul was aliquoted per well to yield a final concentration of 0.1 uM (approx, the Kd for each SH2 domain/peptide pair) and a final volume of 100 ul. The assay plates were incubated until equilibrium binding was attained (3 hr at 4°C with shaking). The assay plates were washed 2 X per well TBS-T (4°C), then 100 ul of SABC (Strepavidin biotinylated horseradish peroxidase complex, available from the Zymed corporation of California cat. no. 93-0043, 1 drop reagent A (streptavidin) and 1 drop of reagent B (AH-biotin conjugated-horseradish peroxidase) per 10 ml of TBS-T, incubated at 37°C for 30 minutes, then cooled to 4°C) was added per well, then incubated at 4°C for 30-60 minutes. The plates were then washed 4 X with TBS-T (4°C) (250 ul/well)/wash). 100 ul of 1 mg/ml OPD (o-phenyldiamine, Sigma Chemical Corporation, St. Louis Missouri) in Citrate Buffer was added per well. […]

T1 sequence (P27986 321-440): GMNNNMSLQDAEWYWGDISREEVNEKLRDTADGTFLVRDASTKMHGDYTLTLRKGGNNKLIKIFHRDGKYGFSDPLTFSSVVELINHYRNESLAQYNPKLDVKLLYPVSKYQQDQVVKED

Row | Molecule | Ki | IC50
1 | 4-acetamido-benzamido-trans-4-methyl-cyclohexyl-N-1-(amino-R-2-(methoxy methyl)-pyrrolidine) carboxamide [Compound 8] | > 1000 µM | > 300 µM
2 | Cc1nnc(SCC2=C(C(=O)O)N3C(=O)[C@@H](NC(=O)C(N)c4ccc(C(=O)O)cc4)[C@H]3SC2)s1 (stereo partly drawn) [Compound 1, 7-[D,L-α-Amino-α-(4-carboxyphenyl)acetamido]-3-[2-(5-methyl-1,3,4-thiadiazolyl)thiomethyl]Δ^3-cephem-4-carboxylic Acid] | > 1000 µM | > 300 µM
3 | N[C@@H](Cc1cc(Br)c(Oc2ccc(O)c(Cc3ccc(O)nn3)c2)c(Br)c1)C(=O)O [Compound 2, L-3,5-Dibromo-3'-(6-oxo-3(1H)-pyridazinylmethyl)-thyronine] | > 1000 µM | > 300 µM
4 | Cc1nc2sc3c(c2c2[nH][nH]c(=O)c12)CCC1(C3)OCCO1 [Compound 3, 8,8-Ethylenedioxy-2,3,7,8,9,10-hexahydro-4-methyl-1H-benzo[b]thieno[2,3-b]pyrazolo[3,4-d]pyridin-3-one] | > 1000 µM | > 300 µM
5 | Cc1ccc(C(=O)c2ccc(C(=O)c3ccc(CC=O)cc3)cc2)cc1 [Compound 4, 4-[4-(4-Methylbenzoyl)benzoyl]phenylacetaldehyde] | > 1000 µM | > 300 µM
6 | Cc1nc2sc3c(c2c2c1c(=O)[nH]n2C)CCC1(C3)OCCO1 [Compound 5, 1,4-Dimethyl-8,8-ethylenedioxy-2,3,7,8,9,10-hexahydro-1H-benzo[b]thieno[2,3-b]pyrazolo[3,4-d]pyridin-3-one] | > 1000 µM | > 300 µM
7 | CCCCCCNC(=O)[C@H]1CC[C@H](CNC(=O)c2ccc([N+](=O)[O-])cc2)CC1 [Compound 7, 4-nitro-benzamido-trans-4-methyl-cyclohexyl-N-hexyl carboxamide] | > 1000 µM | > 300 µM
8 | CCCNC(=O)[C@H]1CC[C@H](CNC(=O)/C=C/c2ccc(C=O)cc2)CC1 [Compound 9, 4-formyl-E-cinnamido-trans-4-methyl-cyclohexyl-N-(propyl) carboxamide] | > 1000 µM | > 300 µM
9 | Cc1nc2sc3c(c2c2[nH][nH]c(=O)c12)CCCC3 [Compound 10, 2,3,7,8,9,10-Hexahydro-4-methyl-1H-benzo[b]thieno[2,3-b]pyrazolo[3,4-d]pyridin-3-one] | > 1000 µM | > 300 µM
